# Entries after “also recorded” stand apart in the source; their conditions may differ. Read-outs that look alike come from different tables or passages of the source. Non-standard residues stand in square brackets, D forms with d. Residues, ends and D or L forms follow the SMILES beside them. *: point of attachment. Biotin = O=C1N[C@H]2[C@H](CS[C@H]2CCCCC(=O)*)N1; pY = N[C@@H](Cc1ccc(OP(=O)(O)O)cc1)C(=O)O
# Legend:
# SHP-2 (SH2-SH2) = target: T1, SHP-2 (SH2-SH2) (Homo sapiens, UniProt Q06124); assay: SPR binding of SHP-2 tandem (N+C) SH2 domains to immobilised phosphopeptides; conditions: 37°C, SHP2 N+C SH2, equilibrium binding fit shown in Figure 6D
# T1 construct: OPPF catalogue number 3911; aa 2–219, EC = 23,045 M^−1 cm^−1; His-tag; host or cells: E. coli BL21(DE3)pLysS
# T1 sequence (Q06124 2-219): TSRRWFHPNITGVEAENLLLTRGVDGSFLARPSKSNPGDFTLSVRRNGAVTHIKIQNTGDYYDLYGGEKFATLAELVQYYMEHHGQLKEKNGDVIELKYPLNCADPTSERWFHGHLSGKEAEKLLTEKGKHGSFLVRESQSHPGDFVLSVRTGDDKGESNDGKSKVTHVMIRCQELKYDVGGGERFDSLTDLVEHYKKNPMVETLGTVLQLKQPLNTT
# Description: (§1) Biotinylated EAT-2 was produced by expression of full length human EAT-2 with a C-terminal BirA tag ([…]) in the E coli expression vector pTrcHisA. Constructs encoding the 6xHis-tagged tandem SH2 domains plus the SH3 domains of PLCγ1 (Swiss-Prot: P19174, aa 536–863) and PLCγ2 (Swiss-Prot: P16885, aa 519–838) were generated in pTrcHisA (5′ joining sequence with BglII site underlined: gag atc tcc translates as EIS). The molecular weight (MW) and theoretical extinction coefficients (EC) of recombinant PLCγ1 and PLCγ2 SH2-SH2-SH3 domains were PLCγ1; MW = 42531, EC = 63,830 M^−1 cm^−1 and PLCγ2; MW = 42415, EC = 67,270 M^−1 cm^−1.
# Measurements of protein-protein affinity were performed on BIAcore 3000 and T200 systems using CM5 or biotin capture chips (GE Healthcare Ltd, UK). Streptavidin was coupled to CM5 sensor chips using standard NHS/EDC chemical linkage, followed by immobilization of biotinylated peptides. […] Equilibrium binding coefficients and dissociation and association rates were calculated using BIAevaluation and/or GraphPad Prism 5.4 software.
# Binding of inhibitory tyrosine phosphatases through their SH2 domains to ITIMs is enhanced by phosphorylation of two tyrosine motifs which are appropriately spaced. […] We measured binding of SHP-2 tandem SH2 domains (recombinant SHP-1 SH2 domains were unstable in solution) to tandem ITSMs in CD244 (Figure 6B and Table 4). […]
# PLCγ1 (SH2-SH2-SH3) = target: T2, PLCγ1 (SH2-SH2-SH3) (Homo sapiens, UniProt P19174); assay: SPR binding of PLCγ1 SH2-SH2-SH3 to immobilised phosphopeptides; conditions: 37°C, ten two-fold dilutions, top concentration 1 μM, one-site specific binding model, curve shown in Figure 7B
# T2 construct: PLCγ1 (Swiss-Prot: P19174, aa 536–863); 6xHis (N); made in house; host or cells: E. coli BL21(DE3)pLysS
# T2 sequence (P19174 536-863): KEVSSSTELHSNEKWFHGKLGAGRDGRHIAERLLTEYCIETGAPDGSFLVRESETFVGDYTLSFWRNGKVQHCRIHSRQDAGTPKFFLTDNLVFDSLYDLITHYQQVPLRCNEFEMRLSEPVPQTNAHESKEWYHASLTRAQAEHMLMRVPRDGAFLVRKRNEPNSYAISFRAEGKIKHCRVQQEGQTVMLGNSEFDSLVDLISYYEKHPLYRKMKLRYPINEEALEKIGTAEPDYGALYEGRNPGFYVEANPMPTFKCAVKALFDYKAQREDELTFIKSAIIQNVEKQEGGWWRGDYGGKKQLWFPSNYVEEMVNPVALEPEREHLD
# Description: as §1
# (§2) Soluble recombinant proteins were produced in BL21(DE3)pLysS E. coli (Calbiochem) at 37°C in 2TY medium and induced at OD 600 = 0.6 with 0.1 mM IPTG for 4 h or in 2XYT auto-induction (Formedium) medium overnight. Bacterial pellets were resuspended in ∼0.1 volume 10 mM HEPES pH7.4, 150 mM NaCl and used immediately or stored at −20°C in 10 ml aliquots. His-tag mediated protein purification was performed on a Co^2+ or Ni^2+ column by standard protocols. […]
# (§3) Measurements of protein-protein affinity were performed on BIAcore 3000 and T200 systems using CM5 or biotin capture chips (GE Healthcare Ltd, UK). […] Equilibrium binding coefficients and dissociation and association rates were calculated using BIAevaluation and/or GraphPad Prism 5.4 software. […]
# EAT-2 [1] = target: T3, EAT-2 (Homo sapiens, UniProt O14796); assay: SPR binding of EAT-2 to immobilised phosphopeptides; conditions: 37°C
# T3 construct: His-tag; made in house; host or cells: E. coli BL21(DE3)pLysS
# T3 sequence (O14796 1-132): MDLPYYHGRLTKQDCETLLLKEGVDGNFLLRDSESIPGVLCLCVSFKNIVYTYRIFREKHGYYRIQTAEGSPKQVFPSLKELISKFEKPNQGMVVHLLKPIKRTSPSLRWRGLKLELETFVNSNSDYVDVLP
# Description: as §1
# Soluble recombinant proteins were produced in BL21(DE3)pLysS E. coli (Calbiochem) at 37°C in 2TY medium and induced at OD 600 = 0.6 with 0.1 mM IPTG for 4 h or in 2XYT auto-induction (Formedium) medium overnight. Bacterial pellets were resuspended in ∼0.1 volume 10 mM HEPES pH7.4, 150 mM NaCl and used immediately or stored at −20°C in 10 ml aliquots. His-tag mediated protein purification was performed on a Co^2+ or Ni^2+ column by standard protocols. […] Where applicable, proteins were stored frozen in 10–25 mM HEPES pH 7.4, 200–300 mM NaCl (pH 7.4).All proteins were purified by size exclusion chromatography immediately prior to SPR analysis.
# Measurements of protein-protein affinity were performed on BIAcore 3000 and T200 systems using CM5 or biotin capture chips (GE Healthcare Ltd, UK). Streptavidin was coupled to CM5 sensor chips using standard NHS/EDC chemical linkage, followed by immobilization of biotinylated peptides. The levels of peptide immobilized were approximately 25 and 50 response units respectively of single and tandem tyrosine motifs to facilitate saturating binding and limitation of “bridging” [22], [45]. Purified recombinant proteins were passed over the immobilized peptides at a range of concentrations in HBS-EP buffer, 10 mM HEPES pH 7.4, 150 mM NaCl, 3.4 mM EDTA, 0.005% surfactant, P20. Equilibrium binding coefficients and dissociation and association rates were calculated using BIAevaluation and/or GraphPad Prism 5.4 software.
# (§4) The specificities of their SH2 domains overlap, introducing the concept of competition between them for ITSMs in cells where they are co-expressed, including NK cells.
# PLCγ2 (SH2-SH2-SH3) = target: T4, PLCγ2 (SH2-SH2-SH3) (Homo sapiens, UniProt P16885); assay: SPR binding of PLCγ2 SH2-SH2-SH3 to immobilised phosphopeptides; conditions: KD (Figure 7B), 37°C, ten two-fold dilutions, top concentration 1 μM, one-site specific binding model, curve shown in Figure 7B
# T4 construct: PLCγ2 (Swiss-Prot: P16885, aa 519–838); 6xHis (N); made in house; host or cells: E. coli BL21(DE3)pLysS
# T4 sequence (P16885 519-838): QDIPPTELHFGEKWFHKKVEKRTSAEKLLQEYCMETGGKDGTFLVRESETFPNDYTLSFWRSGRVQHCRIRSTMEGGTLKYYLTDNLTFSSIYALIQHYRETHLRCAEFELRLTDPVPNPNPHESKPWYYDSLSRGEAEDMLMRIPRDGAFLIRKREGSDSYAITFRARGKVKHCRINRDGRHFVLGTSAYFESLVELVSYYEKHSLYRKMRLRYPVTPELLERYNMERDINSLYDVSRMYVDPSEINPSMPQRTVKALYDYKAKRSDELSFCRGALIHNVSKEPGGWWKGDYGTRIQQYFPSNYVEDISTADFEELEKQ
# Description: as §1, §2, §3
# EAT-2 [2] = conditions: ref [30]; cited from earlier work
# Description: as §4
# SAP = target: T5, SAP (Homo sapiens, UniProt O60880); assay: SPR binding of SAP to immobilised phosphopeptides; conditions: 37°C
# T5 construct: His-tag; made in house; host or cells: E. coli BL21(DE3)pLysS
# T5 sequence (O60880 1-128): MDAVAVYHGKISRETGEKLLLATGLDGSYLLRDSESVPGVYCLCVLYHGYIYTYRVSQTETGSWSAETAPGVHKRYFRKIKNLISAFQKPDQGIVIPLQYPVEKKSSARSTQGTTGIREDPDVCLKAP
# Description: Measurements of protein-protein affinity were performed on BIAcore 3000 and T200 systems using CM5 or biotin capture chips (GE Healthcare Ltd, UK). Streptavidin was coupled to CM5 sensor chips using standard NHS/EDC chemical linkage, followed by immobilization of biotinylated peptides. The levels of peptide immobilized were approximately 25 and 50 response units respectively of single and tandem tyrosine motifs to facilitate saturating binding and limitation of “bridging” [22], [45]. […] Equilibrium binding coefficients and dissociation and association rates were calculated using BIAevaluation and/or GraphPad Prism 5.4 software.
molecule,measurement,setting,value
CC[C@H](C)[C@H](NC(=O)[C@H](CCSC)NC(=O)[C@H](CO)NC(=O)[C@H](Cc1ccc(OP(=O)(O)O)cc1)NC(=O)[C@@H](NC(=O)[C@@H](NC(=O)[C@H](CO)NC(=O)CNC(=O)CNC(=O)CNC(=O)[C@@H]1CCCN1C(=O)[C@H](Cc1ccccc1)NC(=O)[C@@H](NC(=O)[C@H](CCC(N)=O)NC(=O)[C@H](CCC(=O)O)NC(=O)[C@H](CCC(N)=O)NC(=O)[C@H](CCC(=O)O)NC(=O)[C@H](Cc1c[nH]cn1)NC(=O)[C@H](CC(N)=O)NC(=O)[C@H](CCCNC(=N)N)NC(=O)[C@H](CCCNC(=N)N)NC(=O)[C@@H](NC(=O)[C@H](CCCCN)NC(=O)[C@H](CC(C)C)NC(=O)[C@H](CC(=O)O)NC(=O)[C@H](CCCCN)NC(=O)[C@@H](NC(=O)[C@H](CC(=O)O)NC(=O)[C@H](CCC(=O)O)NC(=O)[C@H](Cc1ccc(OP(=O)(O)O)cc1)NC(=O)[C@@H](NC(=O)[C@@H](NC(=O)[C@H](CC(C)C)NC(=O)[C@H](Cc1ccccc1)NC(=O)[C@H](CCC(=O)O)NC(=O)CCCC[C@@H]1SC[C@@H]2NC(=O)N[C@@H]21)[C@@H](C)O)[C@@H](C)CC)C(C)C)[C@@H](C)O)[C@@H](C)O)[C@@H](C)O)[C@@H](C)CC)C(=O)N[C@@H](CCC(N)=O)C(=O)N[C@@H](CO)C(=O)O [CD244 ITSM1+ITSM2] (Biotin-EFLTI[pY]EDVKDLKTRRNHEQEQTFPGGGSTI[pY]SMIQS-OH),Kd,SHP-2 (SH2-SH2),2400 nM
CC[C@H](C)[C@H](NC(=O)[C@@H](NC(=O)[C@H](CC(C)C)NC(=O)[C@H](Cc1ccccc1)NC(=O)[C@H](CCC(=O)O)NC(=O)CCCC[C@@H]1SC[C@@H]2NC(=O)N[C@@H]21)[C@@H](C)O)C(=O)N[C@@H](Cc1ccc(OP(=O)(O)O)cc1)C(=O)N[C@@H](CCC(=O)O)C(=O)N[C@@H](CC(=O)O)C(=O)N[C@H](C(=O)N[C@@H](CCCCN)C(=O)N[C@@H](CC(=O)O)C(=O)O)C(C)C [CD244 ITSM1],Kd,PLCγ1 (SH2-SH2-SH3),130 nM
same,Kd,"EAT-2 [1]; HBS-EP pH 7.4, soluble EAT-2, immobilised phosphopeptide, mean, n and range in own columns of Table 4, read-out: KD",60 nM
same,Kd,"EAT-2 [1]; ten two-fold dilutions, top concentration 0.3 μM, one-site specific binding model, curve shown in Figure 2B, read-out: KD (Figure 2B)",12 nM
same,Kd,PLCγ2 (SH2-SH2-SH3),360 nM
CC(C)C[C@H](NC(=O)[C@@H](NC(=O)[C@H](CC(=O)O)NC(=O)[C@@H](NC(=O)[C@H](Cc1ccc(OP(=O)(O)O)cc1)NC(=O)[C@H](CC(=O)O)NC(=O)[C@H](CO)NC(=O)[C@H](CC(N)=O)NC(=O)[C@H](CO)NC(=O)[C@H](CC(N)=O)NC(=O)CCCC[C@@H]1SC[C@@H]2NC(=O)N[C@@H]21)C(C)C)C(C)C)C(=O)N1CCC[C@H]1C(=O)O [EAT-2 Y127] (Biotin-NSNSD[pY]VDVLP-OH),Kd,PLCγ1 (SH2-SH2-SH3),18 nM
same,Kd,PLCγ2 (SH2-SH2-SH3),87 nM
ADYDTI [mouse CRACC tyrosine motif in the equivalent position to human CRACC ITSM1],binding of EAT-2 to mouse CRACC motif,EAT-2 [2],did not bind EAT-2
"Biotin-GENTEpYDTIPH [CRACC ITSM1, synthetic biotinylated phosphopeptide from human CRACC ITSM1]",binding of SAP,SAP,Neither SAP nor EAT-2 bound; also recorded: No specific association
same,binding of EAT-2,EAT-2 [1],Neither SAP nor EAT-2 bound; also recorded: No specific association
